The subject of data set [1] is human primary fibroblasts. Briefly: Combined treatment of stearic acid and nintedanib in human primary fibroblasts. Type of data set: cell-based. The protocol:
The primary fibroblasts derived from the patients with idiopathic pulmonary fibrosis used in the following experiment were cultured for 7 to 10 days while cutting the lung tissue of the patient into 1×1 mm^2 slices, and then periodically exchanging a cell culture solution (Eagle's minimal essential medium; EMEM) supplemented with 100 unit/ml penicillin, 100 μg/ml streptomycin, and 10% fetal bovine serum (FBS) under conditions of 5% CO2 and 37° C., and cells of passage 2 to 5 were used for the experiment. To verify the anti-fibrotic effect by the combined treatment of stearic acid and nintedanib, which is another therapeutic agent for idiopathic pulmonary fibrosis, human primary fibroblasts were respectively or simultaneously treated with 5 ng/ml TGF-β, 40 μM stearic acid, and 1.5 or 2 μM nintedanib for 24 hours, and then the expression levels of collagen type 1 (COL-1) and α-SMA, which are markers of fibrosis, were measured, respectively.

The subject of data set [2] is p-Smad2/3 and Smad7 in MRC-5 cells. Kind of data set: p-Smad2/3 and Smad7 expression in fibroblasts. Type of data set: cell-based, human. To be noted: 5 mM NAC pre-treatment 1 h, TGF-β1 1 h. As to the method:
The present inventors pre-treated a human pulmonary fibroblast cell line MRC-5 with 40 μM stearic acid for 16 hours, treated the MRC-5 cells with TGF-β1 for 1 hour, and then examined the expression levels of p-Smad2/3 and Smad7 in order to elucidate the anti-fibrotic mechanism of stearic acid in human pulmonary fibroblasts (FIGS. 12A and 12B). Further, to investigate the effect of stearic acid on the production of reactive oxygen species (ROS), MRC-5 cells were pre-treated with 40 μM stearic acid for 16 hours, and cells treated with TGF-β1 for 1 hour were stained with DCF-DA and analyzed by FACS (FIG. 12C). Furthermore, MRC-5 cells were pre-treated with 5 mM N-acetylcysteine (NAC), which is an antioxidant, for 1 hour and treated with TGF-β1 for 1 hour, and then the expression of p-Smad2/3 was examined (FIG. 12D).

In data set [3] the test system is human primary fibroblasts. Briefly: Combined treatment of stearic acid and pirfenidone in human primary fibroblasts (western blotting). Type of data set: cell-based. As to conditions: TGF-β single treatment group set to 100%; corrected with actin. The protocol:
The primary fibroblasts derived from the patients with idiopathic pulmonary fibrosis used in the following experiment were cultured for 7 to 10 days while cutting the lung tissue of the patient into 1×1 mm^2 slices, and then periodically exchanging a cell culture solution (Eagle's minimal essential medium; EMEM) supplemented with 100 unit/ml penicillin, 100 μg/ml streptomycin, and 10% fetal bovine serum (FBS) under conditions of 5% CO2 and 37° C., and cells of passage 2 to 5 were used for the experiment.
To verify the anti-fibrotic effect by the combined treatment of stearic acid and pirfenidone, which is a therapeutic agent for idiopathic pulmonary fibrosis, the human primary fibroblasts isolated by the above-described method were respectively or simultaneously treated with 5 ng/ml TGF-β, 40 μM stearic acid, and 400 or 800 μM pirfenidone for 24 hours, and then the expression levels of collagen type 1 (COL-1) and α-SMA, which are markers of fibrosis, were measured by western blotting, and the inhibitory rate was quantitatively analyzed by correcting the amount of each protein with the amount of actin, which is an intracellular control protein.

Data set [4] concerns human pulmonary epithelial cell line Beas-2B. Kind of data set: Fibronectin (EMT marker) expression under combined treatment in epithelial cells. Type of data set: cell-based. To be noted: TGF-β 5 ng/ml; pirfenidone 800 μM, stearic acid 40 μM. As to the method: FIG. 15 illustrates, as the results of confirming the anti-fibrotic effect according to the combined treatment with stearic acid and pirfenidone in a human pulmonary epithelial cell line BEAS-2B, the results of treating the cells with TGF-β (5 ng/ml), stearic acid (40 μM), and/or pirfenidone (800 μM), and then measuring the expression of fibronectin with a marker of EMT, which is one of the pulmonary fibrosis indices, and quantitatively analyzing the inhibitory efficiency thereof (TGF: TGF-β single treatment group, TGF+PIR: TGF-β and pirfenidone treatment group, TGF+Combi: TGF-β and pirfenidone+stearic acid combined treatment group).
In addition to the results of Example 3-1-1, the present inventors tried to analyze the degree of epithelial to mesenchymal transition (EMT), which is one of the indices for pulmonary fibrosis, during the combined treatment with stearic acid and pirfenidone by treating a human pulmonary epithelial cell line Beas-2B with 800 μM, and for this purpose, the expression level of fibronectin, which is one of the EMT markers, was measured.

Data set [5] concerns pulmonary fibrosis induced by bleomycin. Kind of data set: Combined stearic acid and pirfenidone in bleomycin pulmonary fibrosis animal model. Type of data set: in vivo, mice (C57BL/6J). As to conditions: 3 mg/kg stearic acid, 300 mg/kg pirfenidone oral once every 2 days for 2 weeks. The protocol: In addition to the results of the above examples, the present inventors sought to confirm the anti-fibrotic effect by the combined treatment of stearic acid and pirfenidone in a pulmonary fibrosis animal model. For this purpose, 8-week-old mice (C57BL/6J) were anesthetized with 50 mg/kg […] and 5 mg/kg Rompun, followed by injection of bleomycin and saline into the trachea. From 7 days after administration of bleomycin, 3 mg/kg stearic acid, 300 mg/kg pirfenidone or the two drugs were orally administered at the same time once every 2 days for 2 weeks, and changes in mouse body weight were measured up to 21 days after administration of bleomycin.

For a further data set, the system named is pulmonary fibroblasts. Briefly: Collagen 1 and α-SMA immunoblotting in pulmonary fibroblasts. Type of data set: cell-based, human. As to conditions: relative to control. As to the method: After epithelial cells and fibroblasts were aliquoted into 6-well plates at 2×10^4 cells/well and a stabilization time was imparted for 24 hours, and 15 hours after deficiency, cells were treated with stearic acid (40 uM/mL), TGF-β (5 ng/mL), and stearic acid (40 uM/mL)+TGF-β (5 ng/mL) in this order. After the cells were cultured in an incubator for 24 hours after the treatment, the next-step experiment was performed. After 24 hours of cell stimulation by the method of Example 1-3, the cells were washed twice with iced phosphate buffer saline (PBS), a protein lysate solution was put thereinto, the cells were scraped out and collected in a 1.5 ml EP tube, and then the cells were lysed in a grinder for 30 seconds. Next, centrifugation was performed at a speed of 14,000 rpm at 4° C. for 20 minutes, and the protein was quantified using the BCA analysis method. Thereafter, the protein sample was boiled at 95° C. for 10 minutes for the same amount of protein, and then the expression levels of collagen type 1 and α-SMA were measured by immunoblotting. After the expression level of the protein was confirmed, a significance test between samples was performed using a statistical program. […] The collagen 1/actin or α-SMA/actin indicated on the y-axis of FIGS. 4A and 4B means a value obtained by correcting the protein amount of collagen 1 or α-SMA with the amount of actin, which is an intracellular control protein. […] Further, referring to the test method of obtaining the results in FIG. 4, after pulmonary fibroblasts were treated with palmitic acid at various concentrations (10, 20, and 40 μM/mL), the levels of collagen 1 (collagen 1/actin; FIG. 6A) and α-SMA (α-SMA/actin; FIG. 6B), which are intracellular fibrosis markers, were measured, and shown as relative values to the control (CTL; medium only). […] 40 uM/mL stearic acid, 10 uM/mL palmitic acid, and 5 ng/mL TGF-β were used in the experiment, respectively. […] In addition, referring to the test method of obtaining the results in FIG. 7, the experiment was performed using oleic acid (OA) instead of palmitic acid, and the levels of collagen 1 (collagen 1/actin; FIG. 8A) and α-SMA (α-SMA/actin; FIG. 8B) were measured and shown as relative values to the control (CTL; medium only). 40 uM/mL stearic acid, 40 uM/mL oleic acid, and 5 ng/mL TGF-β were used in the experiment, respectively.

Data set [6] concerns human pulmonary fibroblasts (MRC-5). Briefly: Cell viability (MTT) of human pulmonary fibroblasts. Type of data set: cell-based. As to conditions: palmitic acid 10, 20 and 40 μM/mL alone. As to the method: (§1) After epithelial cells and fibroblasts were aliquoted into 6-well plates at 2×10^4 cells/well and a stabilization time was imparted for 24 hours, and 15 hours after deficiency, cells were treated with stearic acid (40 uM/mL), TGF-β (5 ng/mL), and stearic acid (40 uM/mL)+TGF-β (5 ng/mL) in this order. After the cells were cultured in an incubator for 24 hours after the treatment, the next-step experiment was performed.
(§2) After a 24-hour cell stimulation by the method in Example 1-3 was completed, the medium of epithelial cells and fibroblasts was replaced with a general culture medium, 10 μl of an MTT solution (20 mg/ml) was further added, and then the outside of the plate was wrapped with aluminum foil and cells were cultured in an incubator for 2 hours. […] After 2 hours, cell activation was measured at an absorbance value of 595 nm using an ELISA reader.
(§3) For this purpose, after each culture (BEGM(Lonza) in the case of MRC-5, and BMEM (ATCC) in the case of BEAS-2B) of human pulmonary fibroblasts (MRC-5; ATCC® CCL171™) and human pulmonary epithelial cells (BEAS-2B; ATCC® CRL9609™) was treated with stearic acid (40 uM/mL), TGF-β (5 ng/mL; Sigma), or stearic acid (40 uM/mL)+TGF-β (5 ng/mL) by the method described in Example 1-3 for 24 hours, cell viability was measured by the method in Example 1-4. […]

Data set [7] has as its system human pulmonary epithelial cells (BEAS-2B). Kind of data set: Cell viability (MTT) of human pulmonary epithelial cells. Type of data set: cell-based. To be noted: palmitic acid 10, 20 and 40 μM/mL alone. As to the method: as §1, §2, §3
The mark [8] stands for this setting: 1.5 μM nintedanib single treatment versus TGF single treatment.
[9] abbreviates: 2 μM nintedanib single treatment versus TGF single treatment.
Where [10] appears, read: palmitic acid 10, 20 and 40 μM/mL alone.

With `COC(=O)c1ccc2c(c1)NC(=O)/C2=C(\Nc1ccc(N(C)C(=O)CN2CCN(C)CC2)cc1)c1ccccc1` [nintedanib], the “expression level of COL-1” value in data set [1] (setting [8]) and in data set [1] (setting [9]) was “no change” throughout. Further, the “expression level of α-SMA” value in data set [1] (setting [8]) and in data set [1] (setting [9]) was “no change” each time. Also, the inhibition at 2 µM in data set [1] (Homo sapiens, Col1, 2 μM nintedanib, 40 μM stearic acid, COL-1 expression caused by TGF assumed 100%, read-out: inhibitory rate against COL-1) stood at 110%.

With `CC(=O)N[C@@H](CS)C(=O)O` [NAC, N-acetylcysteine, reference compound], the “expression of p-Smad2/3 induced by TGF-β1” value in data set [2] is listed as “inhibited”.

On to `Cc1ccc(=O)n(-c2ccccc2)c1` [pirfenidone], for which the “inhibitory rate of COL-1” value in data set [3] is listed as 157%. The “expression of fibronectin, quantitative analysis of inhibitory efficiency” value in data set [4] is listed as “about 120%”. Also, in data set [5], the “hydroxyproline inhibition, quantitative analysis” value is 105%. In data set [5] (versus bleomycin group), the level of hydroxyproline result was “partially reduced”. For the same compound, the body weight entry in data set [5] (up to day 21 after bleomycin) is recorded as “further reduced”.

For the compound `CCCCCCCC/C=C\CCCCCCCC(=O)O` [oleic acid, reference compound], in the data set on pulmonary fibroblasts (oleic acid 40 uM/mL alone), the “collagen 1/actin” value is on record as “activated pulmonary fibrosis at the same level as in TGF-β” and the α-SMA/actin result is on record as “activated pulmonary fibrosis at the same level as in TGF-β”.

On to `CCCCCCCCCCCCCCCC(=O)O` [palmitic acid, reference compound], for which, in data set [6], the “cell viability of pulmonary fibroblasts” value is “increased according to the concentration”. Also, the “cell viability of pulmonary epithelial cells” value in data set [7] is reported as “decreased according to the treatment concentration”. Also, in the data set on pulmonary fibroblasts (setting [10]), the “collagen 1/actin” value was “increased at levels similar to that in the case where pulmonary fibroblasts were treated with only TGF-β” and the α-SMA/actin entry is “increased at levels similar to that in the case where pulmonary fibroblasts were treated with only TGF-β”.

These data come from patent US20210205253A1, “Use Of Stearic Acid For Preventing Or Treating Pulmonary Fibrosis” (THE ASAN FOUNDATION, priority 2018, published 2021).
